Key:
[1] = tested on: OVCAR3 cells; assay: Cell proliferation activity test in OVCAR3 cells (CyQUANT Direct); assay type: cell-based; conditions: Homo sapiens, OVCAR-3, 72 h, 3 days incubation, CyQUANT fluorescence detection, read-out: OVCAR-3_IC50_nM
Procedure: OVCAR3 cells were purchased from Nanjing Cobioer Biosciences Co., Ltd. RPMI-1640 medium, fetal bovine serum, and the CyQUANT Direct Cell Proliferation Assay kit were purchased from Thermo Fisher Scientific, USA; 96-well cell culture plates were sourced from Corning, USA.
Culture OVCAR3 cells with RPMI-1640 medium containing 10% fetal bovine serum and incubate them in a 5% CO2 incubator at 37° C. Only cells in the logarithmic growth phase can be used for the test.
Inoculate OVCAR3 cells into a 96-well cell culture plate at 90 μL per well and incubate overnight in a 5% CO2 incubator at 37° C. Dissolve the compound powder in DMSO to prepare a stock solution of 10 mM. Then perform gradient dilution for the compounds in the microplate to achieve a final concentration of 0-10 μM. Add 10 μL of cell culture medium containing compounds to each well to make the final DMSO content 0.2%. Incubate the cell plates in a 5% CO2 incubator at 37° C. for 3 days. Add 100 μL of CyQUANT detection reagent to each well, react at 37° C. for 60 min, and perform fluorescence detection using the PerkinElmer Envision.

[2] = tested on: HT29 cells; assay: CyQuant cell proliferation activity test in HT29 cells; assay type: cell-based; conditions: Homo sapiens, HT-29, 72 h, 2000 cells per well, 3 days incubation, IC50 by XLFIT, read-out: HT29_IC50_nM
Procedure: HT29 cells were purchased from Nanjing Cobioer Biosciences Co., Ltd.; RPMI-1640 medium, fetal bovine serum, Trypsin-EDTA (0.25%), 96-well plates, and CyQuant reagents were purchased from ThermoFisher (USA); DMSO was purchased from SIGMA (USA).
Culture HT29 cells with RPMI-1640 containing 10% fetal bovine serum under the condition of 37° C. and 5% CO2. Only cells in the logarithmic growth phase can be used for the test.
Use the CyQuant reagent to detect the proliferation inhibitory activity of compounds on HT29 cells. Adjust the cell density and inoculate 100 μL per well into the 96-well plate (HT29 at 2000 cells per well), then incubate overnight under the condition of 37° C. and 5% CO2. Add compounds of various target concentrations (initial concentration of 3000 nM, 3-fold dilution, 9 concentration gradients), and make the DMSO content 0.2%. Incubate the cell plates at 37° C. and 5% CO2 for 3 days. Incubate with CyQuant reagent for 1 h, read the plate by Envision, and calculate IC50 using XLFIT.

[3] = biological target: T1, Human KIF18A (amino acid sequence 1-417) (Homo sapiens, UniProt Q8NI77); assay: Enzymatic activity test (ADP-Glo, microtubule-stimulated KIF18A ATPase); assay type: biochemical; conditions: 60 μg/mL microtubules, 25 μM ATP, 2.5 nM KIF18A protein, 120 min at ambient temperature, read-out: KIF18A_nM
T1 construct: purchased Viva Biotech (Shanghai) Ltd
T1 sequence (Q8NI77 1-417): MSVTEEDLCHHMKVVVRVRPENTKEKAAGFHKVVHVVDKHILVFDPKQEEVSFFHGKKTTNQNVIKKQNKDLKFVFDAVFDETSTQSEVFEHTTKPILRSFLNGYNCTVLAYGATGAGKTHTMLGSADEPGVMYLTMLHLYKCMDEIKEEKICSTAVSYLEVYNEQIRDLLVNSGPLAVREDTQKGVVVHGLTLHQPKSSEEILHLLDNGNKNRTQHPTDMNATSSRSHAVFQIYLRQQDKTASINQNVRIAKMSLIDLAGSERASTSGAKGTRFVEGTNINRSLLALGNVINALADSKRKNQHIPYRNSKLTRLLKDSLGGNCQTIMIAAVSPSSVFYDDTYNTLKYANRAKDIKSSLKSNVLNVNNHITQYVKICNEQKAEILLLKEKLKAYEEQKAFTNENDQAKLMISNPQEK
Procedure: Human KIF18A (amino acid sequence 1-417) was purchased from Viva Biotech (Shanghai) Ltd.; the ADP-Glo™ protein kinase kit was acquired from Promega, USA; tubulin was sourced from Cytoskeleton, USA; and the 384-well assay plate and Envision multifunctional microplate reader were obtained from PerkinElmer, USA.
Dissolve the compound powder in DMSO to prepare a stock solution of 10 mM. Then perform gradient dilution for the compounds in the microplate to achieve a final concentration of 0-10 μM. Then, add 2.5 μL each of tubulin, compound, ATP, and KIF18A protein to the microplate in sequence for reaction at ambient temperature for 120 min. The final concentrations in the enzyme reaction are 60 μg/mL for microtubules, 25 μM for ATP, and 2.5 nM for KIF18A protein. After the enzyme reaction, add 10 μL of ADP-GLO reaction reagent to each well and incubate at ambient temperature for 30 min. After that, add 20 μL of detection reagent to each well and incubate at ambient temperature for 30 min in the dark. Finally, perform chemiluminescence detection using the PerkinElmer Envision.

| SMILES | IC50 [1] [nM] | IC50 [2] [nM] | IC50 [3] [nM] |
| --- | --- | --- | --- |
| C[C@H](CO)S(=O)(=O)Nc1ccc(C(=O)Nc2cc3cccnc3c(N3CCC(F)(F)CC3)n2)c(N2CCC3(CC2)CC3)c1 [Example 96, 2-{6-Azaspiro[2.5]octan-6-yl}-N-[8-(4,4-difluoropiperidin-1-yl)-1,7-naphthyridin-6-yl]-4-[(2R)-1-hydroxypropane-2-sulfonamido]benzamide] | 11.3 | 17 | 153 |
| O=C(Nc1cc(N2CCC(F)(F)CC2)c2nsnc2c1)c1ccc(NS(=O)(=O)CCO)cc1N1CCC2(CC1)CC2 [Example 40, 2-(6-Azaspiro[2.5]oct-6-yl)-4-(2-hydroxyethylsulfonyl)aminophenyl)-N-[4-(4,4-difluoropiperidinyl)benzo[3,4-c]1,2,5-thiadiazole-5-ylcarboxamide] | 12 | 10 | 32 |
| CCC1(C)OCc2c1cc(NC(=O)c1ccc(NS(=O)(=O)CCO)cc1N1CCC3(CC1)CC3)nc2N1CCC(F)(F)CC1 (centres unmarked) [Example 10, N-(4-(4,4-difluoropiperidin-1-yl)-1-ethyl-1-methyl-1,3-dihydrofuro[3,4-c]pyridin-6-yl)-4-(2-hydroxyethylsulfonamido)-2-(6-azaspiro[2.5]octan-6-yl)benzamide] | 614 | 1270 | 2750 |
| Cc1nc2c(N3CCC(F)(F)CC3)nc(NC(=O)c3ccc(NS(=O)(=O)CCO)cc3N3CCC4(CC3)CC4)cn2c1C [Example 15] | 71 | 97 | 205 |
| Cc1ccc2cc(NC(=O)c3ccc(NS(=O)(=O)CCO)cc3N3CCC4(CC3)CC4)nc(N3CCC(F)(F)CC3)c2n1 [Example 51, N-(8-(4,4-difluoropiperidin-1-yl)-2-methyl-1,7-naphthyridin-6-yl)-4-(2-hydroxyethylsulfonamido)-2-(6-azaspiro[2.5]octan-6-yl)benzamide] | 385 | 387 | 455 |
| O=C(Nc1cc2cccnc2c(N2CCC(F)(F)CC2)c1F)c1cnc(NS(=O)(=O)CCO)cc1N1CCC2(CC1)CC2 [Example 80, N-(8-(4,4-difluoropiperidin-1-yl)-7-fluoroquinolin-6-yl)-6-((2-hydroxyethyl)sulfonamido)-4-(6-azaspiro[2.5]oct-6-yl)nicotinamide] | 18 | 20 | 9 |
| O=C(Nc1cc2cccnc2c(N2CCC(F)(F)CC2)n1)c1c(F)cc(NS(=O)(=O)CCO)cc1N1CCC2(CC1)CC2 [Example 46, N-(8-(4,4-difluoropiperidin-1-yl)-1,7-naphthyridin-6-yl)-2-fluoro-4-((2-hydroxyethyl)sulfonamido)-6-(6-azaspiro[2.5]octan-6-yl)benzamide] | 12 | 14 | 39 |
| C[C@@H]1CN(c2nc(NC(=O)c3ccc(NS(=O)(=O)CCO)cc3N3CCC4(CC3)CC4)cc3cccnc23)CCO1 [Example 47] | 48 | 40 | 39 |
| O=C(Nc1cc2cncnc2c(N2CCC(F)(F)CC2)n1)c1ccc(NS(=O)(=O)CCO)cc1N1CCC2(CC1)CC2 [Example 58] | 12 | 17 | 32 |
| Nc1ncc2cc(NC(=O)c3ccc(NS(=O)(=O)CCO)cc3N3CCC4(CC3)CC4)cc(N3CCC(F)(F)CC3)c2n1 [Example 84, N-(2-amino-8-(4,4-difluoropiperidin-1-yl)quinazolin-6-yl)-4-((2-hydroxyethyl)sulfonamido)-2-(6-azaspiro[2.5]oct-6-yl)benzamide] | 11 | 25 | 40 |
| O=C(Nc1cc2ncnn2c(N2CCC(F)(F)CC2)n1)c1cc(F)c(NS(=O)(=O)CCO)cc1N1CCC2(CC1)CC2 [Example 25, (2-(6-azaspiro[2.5]oct-6-yl)-5-fluoro-4-{[(2-hydroxyethyl)sulphonyl]amino}phenyl)-N-[5-(4,4-difluoropiperidinyl)(4-hydro-1,2,4-triazolo[4,3-e]pyrimidin-7-yl)]formamide] | 46 | 84 | 5 |
| N#Cc1c(NC(=O)c2ccc(NS(=O)(=O)CCO)cc2N2CCC3(CC2)CC3)cc2cccnc2c1N1CCC(F)(F)CC1 [Example 74, N-(7-cyano-8-(4,4-difluoropiperidin-1-yl)quinolin-6-yl)-4-((2-hydroxyethyl)sulfon amido)-2-(6-azaspiro[2.5]oct-6-yl)benzamide] | 1530 | 1790 | > 3000 |
| Cc1ncc2c(N3CCC(F)(F)CC3)nc(NC(=O)c3ccc(NS(=O)(=O)CCO)cc3N3CCC4(CC3)CC4)cn12 [Example 12, N-(8-(4,4-difluoropiperidin-1-yl)-3-methylimidazo[1,5-a]pyrazin-6-yl)-4-(2-hydroxyethylsulfonamido)-2-(6-azaspiro[2.5]octan-6-yl)benzamide] | 80 | 102 | 80 |
| Cn1cnc2c(N3CCC(F)(F)CC3)nc(NC(=O)c3ccc(NS(=O)(=O)CCO)cc3N3CCC4(CC3)CC4)cc21 [Example 35, N-(4-(4,4-difluoropiperidin-1-yl)-1-methyl-1H-imidazolo[4,5-c]pyridin-6-yl)-4-((2-hydroxyethyl)sulfonamido)-2-(6-azaspiro[2.5]octan-6-yl)benzamide] | 27 | 57 | 29 |
| Cc1ccc2cc(NC(=O)c3ccc(NS(=O)(=O)CCO)cc3N3CCC4(CC3)CC4)c(F)c(N3CCC(F)(F)CC3)c2n1 [Example 75, N-(8-(4,4-difluoropiperidin-1-yl)-7-fluoro-2-methylquinolin-6-yl)-4-((2-hydroxyethyl)sulfonamido)-2-(6-azaspiro[2.5]octan-6-yl)benzamide] | 83 | 44 | 387 |
| Cc1nnc2cc(NC(=O)c3ccc(NS(=O)(=O)CCO)cc3N3CCC4(CC3)CC4)nc(N3CCC(F)(F)CC3)n12 [Example 27, N-(5-(4,4-difluoropiperidin-1-yl)-3-methyl-[1,2,4]triazolo[4,3-c]pyrimidin-7-yl)-4-(2-hydroxyethylsulfonamido)-2-(6-azaspiro[2.5]octan-6-yl)benzamide] | 23 | 33 | 13 |
| O=C(Nc1cc2ccoc2c(N2CCC(F)(F)CC2)n1)c1ccc(NS(=O)(=O)CCO)cc1N1CCC2(CC1)CC2 [Example 29, N-(7-(4,4-difluoropiperidin-1-yl)furo[2,3-c]pyridin-5-yl)-4-(2-hydroxyethylsulfonamido)-2-(6-azaspiro[2.5]octan-6-yl)benzamide] | 13 | 11 | 28 |
| O=C(Nc1cc2cccn2c(N2CCC(F)(F)CC2)n1)c1ccc(NS(=O)(=O)CCO)cc1N1CCC2(CC1)CC2 [Example 20, N-(1-(4,4-difluoropiperidin-1-yl)pyrrolo[1,2-c]pyrimidin-3-yl)-4-(2-hydroxyethylsulfonamido)-2-(6-azaspiro[2.5]octan-6-yl)benzamide] | 18 | 23 |  |
